# Experimental data taken from patent US11724992B2 (Novartis AG, priority 2017, dated 2023).
# Read-outs that look alike come from different tables or passages of the source.
# System: IL-1β production in PMA-differentiated THP-1 cells
# Test: IL-1β production in PMA-differentiated THP-1 cells stimulated with gramicidin (hTHP-1 assay, 2% fetal bovine serum; Procedures 1-3)
# Type: cell-based, human
# Details: read-out: hTHP-1 IC50 (Average IC50 of compounds in hTHP-1 assay)
# Procedure, shortened: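 Readout is HTRF of IL-1β in cell-free supernatant after 2 h gramicidin (5 μM) challenge. Cells: THP-1 differentiated with PMA 20 ng/ml for 16-18 h, plated 50,000/well in 2% FBS RPMI, exposed to compound 1 h beforehand at final 100–0.0017 μM, DMSO 0.37%.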
# [1] = hTHP-1 assay containing 2% fetal bovine serum, class symbols
# [2] = Homo sapiens, THP-1, hTHP-1 assay containing 2% fetal bovine serum, class symbols
SMILES,IC50 [2] [nM],further results
"CC(=O)c1ncc(S(N)(=O)=NC(=O)Nc2c3c(cc4c2CCC4)CCC3)s1 (single isomer, unassigned) [Example 418, (S) or (R)-2-acetyl-N′-((1,2,3,5,6,7-hexahydro-s-indacen-4-yl)carbamoyl)thiazole-5-sulfonimidamide]",–,IC50 [1]: 40 to 200 nM
"CC(C)(O)c1ncc(S(N)(=O)=NC(=O)Nc2cc3c(c4c2CCC4)CCC3)s1 (single isomer, unassigned) [Example 419, (R) or (S)-N′-((1,2,3,6,7,8-hexahydro-as-indacen-4-yl)carbamoyl)-2-(2-hydroxypropan-2-yl)thiazole-5-sulfonimidamide]",–,IC50 [1]: 40 to 200 nM
"CC(C)(O)c1ncc(S(N)(=O)=NC(=O)Nc2cc3c(c4c2CCC4)CCC3)s1 (single isomer, unassigned) [Example 420, (S) or (R)-N′-((1,2,3,6,7,8-hexahydro-as-indacen-4-yl)carbamoyl)-2-(2-hydroxypropan-2-yl)thiazole-5-sulfonimidamide]",–,IC50 [1]: 1000 to 5000 nM
"[2H]C1([2H])CCc2cc3c(c(NC(=O)N=S(N)(=O)c4cnc(C(C)(C)O)s4)c21)C([2H])([2H])CC3 (single isomer, unassigned) [Example 421, (R) or (S)-N′-((1,2,3,5,6,7-hexahydro-s-indacen-4-yl-3,3,5,5-d4)carbamoyl)-2-(2-hydroxypropan-2-yl)thiazole-5-sulfonimidamide]",–,IC50 [1]: 8 to 40 nM
"[2H]C1([2H])CCc2c1cc1c(c2NC(=O)N=S(N)(=O)c2cnc(C(C)(C)O)s2)CCC1([2H])[2H] (single isomer, unassigned) [Example 423, (R) or (S)-N′-((1,2,3,5,6,7-hexahydro-s-indacen-4-yl-1,1,7,7-d4)carbamoyl)-2-(2-hydroxypropan-2-yl)thiazole-5-sulfonimidamide]",–,IC50 [1]: 8 to 40 nM
CNS(=O)(=NC(=O)N(C)c1c2c(cc3c1CCC3)CCC2)c1cnc(C(C)(C)O)s1 (stereo not drawn) [Compound 249],–,"IC50 (Homo sapiens, THP-1, hTHP-1 assay containing 2% fetal bovine serum, bound): > 30000 nM"
CC(C)(O)c1ncc([S@@](N)(=O)=NC(=O)Nc2c3c(cc4c2CCC4)CCC3)s1 [Example 5],–,IC50 [1]: 200 to 1000 nM
CC(C)(O)c1ncc([S@](N)(=O)=NC(=O)Nc2c3c(cc4c2CCC4)CCC3)s1 [Example 6],–,IC50 [1]: 8 to 40 nM
"CC(C)(O)c1ccc(S(N)(=O)=NC(=O)Nc2c3c(cc4c2CCC4)CCC3)c(F)c1 (stereo not drawn) [Example 13, 2-fluoro-N′-(1,2,3,5,6,7-hexahydro-s-indacen-4-ylcarbamoyl)-4-(2-hydroxypropan-2-yl)benzenesulfonimidamide]",40 to 200,–
"CC(C)(O)c1csc(S(N)(=O)=NC(=O)Nc2c3c(c(Cl)c4c2CCC4)CCC3)c1 (stereo not drawn) [Example 14, N′-(8-chloro-1,2,3,5,6,7-hexahydro-s-indacen-4-ylcarbamoyl)-4-(2-hydroxypropan-2-yl)thiophene-2-sulfonimidamide]",8 to 40,–
"CC(C)c1cc(C#N)c(F)c(C(C)C)c1NC(=O)N=S(N)(=O)c1cnc(C(C)(C)O)s1 (stereo not drawn) [Example 15, N′-(4-cyano-3-fluoro-2,6-diisopropylphenylcarbamoyl)-2-(2-hydroxypropan-2-yl)thiazole-5-sulfonimidamide]",40 to 200,–
"CC(C)c1cc(F)cc(C(C)C)c1NC(=O)N=S(N)(=O)c1cnc(C(C)(C)O)s1 (stereo not drawn) [Example 21, N′-(4-fluoro-2,6-diisopropylphenylcarbamoyl)-2-(2-hydroxypropan-2-yl)thiazole-5-sulfonimidamide]",40 to 200,–
"CN(C)Cc1ccc(S(N)(=O)=NC(=O)Nc2c3c(cc4c2CCC4)CCC3)cc1 (stereo not drawn) [Example 28, 4-((dimethylamino)methyl)-N′-(1,2,3,5,6,7-hexahydro-s-indacen-4-ylcarbamoyl)benzenesulfonimidamide]",40 to 200,–
"CC(C)(O)c1cc(F)c(S(N)(=O)=NC(=O)Nc2c3c(c(F)c4c2CCC4)CCC3)s1 (stereo not drawn) [Example 30, 3-fluoro-N′-(8-fluoro-1,2,3,5,6,7-hexahydro-s-indacen-4-ylcarbamoyl)-5-(2-hydroxypropan-2-yl)thiophene-2-sulfonimidamide]",8 to 40,–
"CC(C)c1cc(OC(F)F)cc(C(C)C)c1NC(=O)N=S(N)(=O)c1ncc(C(C)(C)O)s1 (stereo not drawn) [Example 38, N′-(4-(difluoromethoxy)-2,6-diisopropylphenylcarbamoyl)-5-(2-hydroxypropan-2-yl)thiazole-2-sulfonimidamide]",40 to 200,–
CC(C)(O)c1ccc(S(N)(=O)=NC(=O)Nc2c3c(c(Cl)c4c2CCC4)CCC3)c(F)c1 (stereo not drawn) [Example 41],40 to 200,–
"Cc1oc(S(N)(=O)=NC(=O)Nc2c3c(c(F)c4c2CCC4)CCC3)cc1C(C)(C)O (stereo not drawn) [Example 45, N′-(8-fluoro-1,2,3,5,6,7-hexahydro-s-indacen-4-ylcarbamoyl)-4-(2-hydroxypropan-2-yl)-5-methylfuran-2-sulfonimidamide]",< 8,–

SMILES,IC50 [2] [nM],further results
"CN(C)Cc1ccc(S(N)(=O)=NC(=O)Nc2c3c(cc4c2CCC4)CCC3)c(F)c1 (stereo not drawn) [Example 48, 4-((dimethylamino)methyl)-2-fluoro-N′-(1,2,3,5,6,7-hexahydro-s-indacen-4-ylcarbamoyl)benzene-sulfonimidamide]",40 to 200,–
"CC(C)c1cc(F)cc(C(C)C)c1NC(=O)N=S(N)(=O)c1ccc(C(C)(C)O)s1 (stereo not drawn) [Example 49, N′-(4-fluoro-2,6-diisopropylphenylcarbamoyl)-5-(2-hydroxypropan-2-yl)thiophene-2-sulfonimidamide]",200 to 1000,–
"CC(C)(O)c1ccc(S(N)(=O)=NC(=O)Nc2c3c(c(F)c4c2CCC4)CCC3)c(Cl)c1 (stereo not drawn) [Example 50, 2-chloro-N′-(8-fluoro-1,2,3,5,6,7-hexahydro-s-indacen-4-ylcarbamoyl)-4-(2-hydroxypropan-2-yl)benzenesulfonimidamide]",1000 to 5000,–
"Cc1cc(S(N)(=O)=NC(=O)Nc2c3c(cc4c2CCC4)CCC3)ccc1C(C)(C)O (stereo not drawn) [Example 52, N′-((1,2,3,5,6,7-hexahydro-s-indacen-4-yl)carbamoyl)-4-(2-hydroxypropan-2-yl)-3-methylbenzenesulfonimidamide]",200 to 1000,–
"Cc1nc(C(C)(C)O)sc1S(N)(=O)=NC(=O)Nc1c2c(cc3c1CCC3)CCC2 (stereo not drawn) [Example 53, N′-((1,2,3,5,6,7-hexahydro-s-indacen-4-yl)carbamoyl)-2-(2-hydroxypropan-2-yl)-4-methylthiazole-5-sulfonimidamide]",8 to 40,–
"CC(C)(O)c1cc(F)cc(S(N)(=O)=NC(=O)Nc2c3c(c(F)c4c2CCC4)CCC3)c1 (stereo not drawn) [Example 56, 3-fluoro-N′-((8-fluoro-1,2,3,5,6,7-hexahydro-s-indacen-4-yl)carbamoyl)-5-(2-hydroxypropan-2-yl)benzenesulfonimidamide]",200 to 1000,–
"Cc1cc(S(N)(=O)=NC(=O)Nc2c(C(C)C)cc(OC(F)F)cc2C(C)C)sc1C(C)(C)O (stereo not drawn) [Example 57, N′-((4-(difluoromethoxy)-2,6-diisopropylphenyl)carbamoyl)-5-(2-hydroxypropan-2-yl)-4-methylthiophene-2-sulfonimidamide]",200 to 1000,–
"CC(C)(O)c1cc(S(N)(=O)=NC(=O)Nc2c3c(c(F)c4c2CCC4)CCC3)ccc1F (stereo not drawn) [Example 58, 4-fluoro-N′-((8-fluoro-1,2,3,5,6,7-hexahydro-s-indacen-4-yl)carbamoyl)-3-(2-hydroxypropan-2-yl)benzenesulfonimidamide]",1000 to 5000,–
"Cc1nc(C(C)(C)O)sc1S(N)(=O)=NC(=O)Nc1c2c(c(F)c3c1CCC3)CCC2 (stereo not drawn) [Example 59, N′-((8-fluoro-1,2,3,5,6,7-hexahydro-s-indacen-4-yl)carbamoyl)-2-(2-hydroxypropan-2-yl)-4-methylthiazole-5-sulfonimidamide]",8 to 40,–
"CC(C)(O)c1ccc(S(N)(=O)=NC(=O)Nc2c3c(cc4c2CCC4)CCC3)cc1F (stereo not drawn) [Example 60, 3-fluoro-N′-((1,2,3,5,6,7-hexahydro-s-indacen-4-yl)carbamoyl)-4-(2-hydroxypropan-2-yl)benzenesulfonimidamide]",1000 to 5000,–
"CC(C)(O)c1csc(S(N)(=O)=NC(=O)Nc2c3c(c(F)c4c2CCC4)CCC3)n1 (stereo not drawn) [Example 61, N′-((8-fluoro-1,2,3,5,6,7-hexahydro-s-indacen-4-yl)carbamoyl)-4-(2-hydroxypropan-2-yl)thiazole-2-sulfonimidamide]",8 to 40,–
"CC(C)c1ccc(F)c(C(C)C)c1NC(=O)N=S(N)(=O)c1cnc(C(C)(C)O)s1 (stereo not drawn) [Example 62, N′-((3-fluoro-2,6-diisopropylphenyl)carbamoyl)-2-(2-hydroxypropan-2-yl)thiazole-5-sulfonimidamide]",40 to 200,–
"CC(C)c1cc(C#N)cc(C(C)C)c1NC(=O)N=S(N)(=O)c1cc(C#N)cc(C(C)(C)O)c1 (stereo not drawn) [Example 67, 3-cyano-N′-((4-cyano-2,6-diisopropylphenyl)carbamoyl)-5-(2-hydroxypropan-2-yl)benzenesulfonimidamide]",200 to 1000,–
"CC(C)c1cc(C#N)c(F)c(C(C)C)c1NC(=O)NS(=N)(=O)c1sc(C(C)(C)O)nc1CO (stereo not drawn) [Example 71, N-((4-cyano-3-fluoro-2,6-diisopropylphenyl)carbamoyl)-4-(hydroxymethyl)-2-(2-hydroxypropan-2-yl)thiazole-5-sulfonimidamide]",1000 to 5000,–
"CC(C)c1cc(C#N)c(F)c(C(C)C)c1NC(=O)N=S(N)(=O)c1cnc(C(C)(O)CO)s1 (stereo not drawn) [Example 72, N′-((4-cyano-3-fluoro-2,6-diisopropylphenyl)carbamoyl)-2-(1,2-dihydroxypropan-2-yl)thiazole-5-sulfonimidamide]",–,IC50 [1]: 200 to 1000 nM
"Cc1oc(S(N)(=O)=NC(=O)Nc2c3c(cc4c2C(C)CC4)CCC3)cc1C(C)(C)O [Example 127, Two isomers of (R,S)-and (R,R)-or (S,S)-and (S,R) 4-(2-hydroxypropan-2-yl)-5-methyl-N′-((3-methyl-1,2,3,5,6,7-hexahydro-s-indacen-4-yl)carbamoyl)furan-2-sulfonimidamide]",–,IC50 [1]: 40 to 200 nM
